Values quoted from earlier work as cited in US9855261B2, “Polymeric compound having camptothecin compound and anti-cancer effect enhancer bound thereto, and use of same” (priority 2012, dated 2018).

Conditions: of its dose

- share of dose excreted renally: 20-40%
Structure (SMILES): CC[C@@]1(O)C(=O)OCc2c1cc1n(c2=O)Cc2cc3c(CN(C)C)c(O)ccc3nc2-1 [Topotecan]
